The supplement of paper PMC11061612

Columns and labels:
Test in all cases: Bliss excess, mean over the matrix (fraction); higher = more synergy
[1] = test system: A4-Fuk (B-Lymphoblastic Leukemia)
Summary of the method: (§1)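 Bliss excess equals the observed combination effect minus the expected value EA + EB − EA·EB, where EA and EB are the effects of each agent alone. Combination Emax is the second-highest inhibition within the matrix. Inhibition was scaled from CellTiter-Glo 2.0 luminescence, with 0 set by vehicle wells and 1 by blank wells, after 72 hours of two-drug dosing of cells plated in 1536-well plates.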

[2] = test system: COLO-668 (Small Cell Lung Carcinoma)
Summary of the method: as §1

COLO-679 (Melanoma) = test system: COLO-679 (Melanoma)
Summary of the method: as §1

[3] = test system: Ca-Ski (Cervical Carcinoma)
Summary of the method: as §1

[4] = test system: DU-145 (Prostate Carcinoma)
Summary of the method: as §1

[5] = test system: EFO-21 (Ovarian Carcinoma)
Summary of the method: as §1

[6] = test system: HAL-01 (B-Lymphoblastic Leukemia)
Summary of the method: as §1

[7] = test system: KGN (Other Solid Carcinomas)
Summary of the method: as §1

[8] = test system: MDA-MB-453 (Breast Carcinoma)
Summary of the method: as §1

[9] = test system: ME-180 (Cervical Carcinoma)
Summary of the method: as §1

[10] = test system: ML-2 (Acute Myeloid Leukemia)
Summary of the method: as §1

[11] = test system: MOG-G-UVW (Low Grade Glioma)
Summary of the method: as §1

[12] = test system: MV-4-11 (Acute Myeloid Leukemia)
Summary of the method: as §1

[13] = test system: Mo-T (Other Blood Carcinomas)
Summary of the method: as §1

[14] = test system: NCI-H1355 (Lung Adenocarcinoma)
Summary of the method: as §1

[15] = test system: NCI-H1993 (Lung Adenocarcinoma)
Summary of the method: as §1

SK-N-AS (Neuroblastoma) = test system: SK-N-AS (Neuroblastoma)
Summary of the method: as §1

[16] = test system: SKN (Other Solid Carcinomas)
Summary of the method: as §1

[17] = test system: SNU-387 (Hepatocellular Carcinoma)
Summary of the method: as §1

[18] = test system: SW982 (Other Solid Carcinomas)
Summary of the method: as §1

Row | SMILES | Bliss excess [1] | Bliss excess [2] | Bliss excess (COLO-679 (Melanoma)) | Bliss excess [3] | Bliss excess [4] | Bliss excess [5] | Bliss excess [6] | Bliss excess [7] | Bliss excess [8] | Bliss excess [9] | Bliss excess [10] | Bliss excess [11] | Bliss excess [12] | Bliss excess [13] | Bliss excess [14] | Bliss excess [15] | Bliss excess (SK-N-AS (Neuroblastoma)) | Bliss excess [16] | Bliss excess [17] | Bliss excess [18]
1 | C[C@@H](c1ccc2nccn2c1)n1nnc2ncc(-c3cnn(C)c3)nc21 [Savolitinib] + CC1(C)CCC(CN2CCN(c3ccc(C(=O)NS(=O)(=O)c4ccc(NCC5CCOCC5)c([N+](=O)[O-])c4)c(Oc4cnc5[nH]ccc5c4)c3)CC2)=C(c2ccc(Cl)cc2)C1 [Venetoclax] (first compound max 1 µM, 7x7, partner max 1 µM) | -0.0269 | -0.0624 | -0.0676 | -0.0475 | -0.0339 | -0.0679 | -0.0387 | -0.0249 | -0.0173 | -0.084 | 0.0096 | 0.0069 | 0.0246 | -0.0492 | -0.0398 | -0.0306 | -0.0568 | -0.0442 | -0.106 | -0.046
2 | Cc1cc2ncnn2cc1Nc1ncc2c(n1)n(C1CCOCC1)c(=O)n2C [AZD7648] + O=C(c1cc(Cc2n[nH]c(=O)c3ccccc23)ccc1F)N1CCN(C(=O)C2CC2)CC1 [Olaparib] (first compound max 10 µM, 7x7, partner max 10 µM) | -0.038 | -0.0105 | -0.039 | -0.0467 | -0.026 | -0.045 | 0.0522 | -0.0384 | -0.0144 | -0.0432 | -0.0218 | -0.0052 | -0.0389 | -0.049 | -0.0538 | -0.0321 | -0.0337 | -0.0448 | -0.0303 | 0.0002
3 | Cc1cc2ncnn2cc1Nc1ncc2c(n1)n(C1CCOCC1)c(=O)n2C [AZD7648] + C=CCn1c(=O)c2cnc(Nc3ccc(N4CCN(C)CC4)cc3)nc2n1-c1cccc(C(C)(C)O)n1 [AZD1775] (first compound max 10 µM, partner max 1 µM) | -0.0655 | -0.0151 | -0.0446 | -0.0255 | -0.0341 | 0.0175 | 0.183 | -0.0266 | -0.0223 | -0.0378 | -0.0199 | -0.0301 | 0.053 | -0.14 | -0.0276 | -0.0167 | 0.0212 | -0.0103 | -0.123 | -0.0111
4 | CN(CCO)CC[C@H](CSc1ccccc1)Nc1ccc(S(=O)(=O)NC(=O)c2ccc(N3CCC([C@@H](O)c4ccccc4-c4ccc(Cl)cc4)CC3)cc2)cc1S(=O)(=O)C(F)(F)F [AZD4320] + CC(=O)O[C@H]1C(=O)[C@@]2(C)[C@H]([C@H](OC(=O)c3ccccc3)[C@]3(O)C[C@H](OC(=O)[C@H](O)[C@@H](NC(=O)c4ccccc4)c4ccccc4)C(C)=C1C3(C)C)[C@]1(OC(C)=O)CO[C@@H]1C[C@@H]2O [Paclitaxel] (first compound max 1 µM, 7x7, partner max 3 µM) | -0.0556 | 0.125 | -0.0012 | 0.114 | 0.0406 | 0.0978 | 0.0634 | 0.0039 | 0.249 | 0.139 | -0.0009 | -0.0104 | 0.0055 | 0.163 | 0.0513 | 0.0851 | 0.0584 | 0.13 | 0.0767 | 0.0272
5 | Cc1cc2ncnn2cc1Nc1ncc2c(n1)n(C1CCOCC1)c(=O)n2C [AZD7648] + CN(C)CCCOc1ccc(-c2ccc3ncc4c(c3c2)n(C2CCOCC2)c(=O)n4C)cn1 [AZD0156] (first compound max 10 µM, 7x7, partner max 1 µM) | 0.0001 | -0.0252 | -0.0259 | 0.0424 | -0.0142 | -0.0063 | -0.0058 | -0.0424 | 0.0257 | -0.0167 | -0.0154 | 0.0206 | 0.0291 | -0.122 | -0.033 | -0.0225 | -0.008 | 0.0229 | -0.0188 | -0.0471
6 | Cc1nc(Nc2ncc(C(=O)Nc3c(C)cccc3Cl)s2)cc(N2CCN(CCO)CC2)n1 [Dasatinib] + CC(=O)Nc1cccc(-n2c(=O)n(C3CC3)c(=O)c3c(Nc4ccc(I)cc4F)n(C)c(=O)c(C)c32)c1 [Trametinib] (first compound max 2 µM, 7x7, partner max 1 µM) | -0.0013 | -0.0121 | -0.137 | 0.0639 | -0.0081 | 0.0296 | 0.0436 | -0.0643 | -0.035 | 0.0171 | -0.122 | -0.028 | -0.128 | -0.0835 | 0.0328 | -0.0254 | 0.0361 | -0.0618 | 0.0213 | -0.0319
7 | Cc1cc2ncnn2cc1Nc1ncc2c(n1)n(C1CCOCC1)c(=O)n2C [AZD7648] + CCN(CCO)CCCOc1ccc2c(Nc3cc(CC(=O)Nc4cccc(F)c4)[nH]n3)ncnc2c1 [AZD2811] (first compound max 10 µM, 7x7, partner max 1 µM) | 0.0759 | 0.0084 | -0.0126 | 0.0387 | -0.0078 | -0.0061 | 0.0199 | -0.0649 | -0.0013 | -0.0485 | -0.116 | -0.027 | -0.0538 | -0.0582 | -0.0401 | 0.0171 | -0.0011 | -0.033 | -0.0345 | -0.0569
8 | Cc1cc2ncnn2cc1Nc1ncc2c(n1)n(C1CCOCC1)c(=O)n2C [AZD7648] + COc1cc([C@@H]2c3cc4c(cc3[C@@H](O[C@@H]3O[C@@H]5CO[C@@H](C)O[C@H]5[C@H](O)[C@H]3O)[C@H]3COC(=O)[C@H]23)OCO4)cc(OC)c1O [Etoposide] (first compound max 10 µM, 7x7, partner max 10 µM) | -0.0187 | 0.0429 | -0.0745 | 0.103 | 0.0001 | 0.0562 | 0.0962 | 0.114 | -0.0136 | 0.12 | 0.125 | 0.164 | 0.115 | 0.0928 | 0.0529 | -0.0083 | 0.0684 | 0.0503 | -0.0126 | 0.142
9 | CN(CCO)CC[C@H](CSc1ccccc1)Nc1ccc(S(=O)(=O)NC(=O)c2ccc(N3CCC([C@@H](O)c4ccccc4-c4ccc(Cl)cc4)CC3)cc2)cc1S(=O)(=O)C(F)(F)F [AZD4320] + Cc1cc2ncnn2cc1Nc1ncc2c(n1)n(C1CCOCC1)c(=O)n2C [AZD7648] (first compound max 1 µM, 7x7, partner max 10 µM) | -0.0211 | -0.0431 | -0.0351 | -0.0243 | -0.0355 | -0.0461 | 0.0071 | -0.103 | -0.0409 | -0.007 | -0.0141 | -0.0412 | -0.0133 | -0.0057 | -0.052 | -0.0205 | -0.0399 | -0.0249 | -0.041 | 0.0065
10 | CN(CCO)CC[C@H](CSc1ccccc1)Nc1ccc(S(=O)(=O)NC(=O)c2ccc(N3CCC([C@@H](O)c4ccccc4-c4ccc(Cl)cc4)CC3)cc2)cc1S(=O)(=O)C(F)(F)F [AZD4320] + C[C@@H](Nc1cc(F)cc(F)c1)c1cc(C(=O)N(C)C)cc2c(=O)cc(N3CCOCC3)oc12 [AZD8186] (first compound max 1 µM, 7x7, partner max 3 µM) | 0.0025 | 0.0083 | -0.0469 | 0.0605 | -0.0296 | 0.0323 | 0.0337 | 0.0014 | 0.02 | -0.0137 | 0.0182 | -0.086 | 0.0114 | 0.0075 | 0.0082 | 0.0156 | 0.0214 | 0.0522 | 0.0168 | 0.0078
